Data taken from patent US8048825B2, “Haloalkylsulfonanilide derivatives or salt thereof, herbicide comprising the derivatives as active ingredient, and use of the herbicide” (Nihon Nohyaku Co., Ltd., priority 2006, dated 2011).

What was measured:
Format in all cases: in vivo
[1] = system: Scirpus juncoides; experiment: Herbicidal efficacy on paddy field weeds of pre-emergence stage (Pre), Test Example 1; details: 1000 g/ha as active ingredient, examined after 21 days
In short: (§1)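 Pre-emergence paddy test: 1000 g/ha active ingredient, formulated and water-diluted, dropped onto 5 cm floodwater one day after sowing both weeds in clay loam. After 21 days in greenhouse, inhibition relative to untreated control rated on 0 (0%) to 5 (100%) scale.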

[2] = system: Lindernia procumbens; experiment: as above; details: 1000 g/ha as active ingredient, examined after 21 days
In short: as §1

[3] = system: Echinochloa crus-galli; experiment: Herbicidal effect on paddy field weeds of post-emergence stage (Post), Test Example 2; details: one-leaf stage, 1000 g/ha as active ingredient, examined after 21 days
In short: (§2)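 Post-emergence paddy test: formulated compound added to 5 cm standing water at 1000 g/ha a.i. when weeds reached one-leaf stage in clay loam pots in greenhouse. Growth inhibition rated 21 days later versus untreated control on a 0 (0%) to 5 (100%) scale.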

[4] = system: Scirpus juncoides; experiment: as above; details: one-leaf stage, 1000 g/ha as active ingredient, examined after 21 days
In short: as §2

[5] = system: Lindernia procumbens; experiment: as above; details: one-leaf stage, 1000 g/ha as active ingredient, examined after 21 days
In short: as §2

| Structure (SMILES) | Scirpus juncoides pre (herbicidal effect) [1] | Lindernia procumbens pre (herbicidal effect) [2] | Echinochloa crus-galli post (herbicidal effect) [3] | Scirpus juncoides post (herbicidal effect) [4] | Lindernia procumbens post (herbicidal effect) [5] |
| --- | --- | --- | --- | --- | --- |
| CCOC(=O)N(c1ccccc1CN1CCC(c2ccccc2C)OC1=O)S(=O)(=O)C(F)(F)F (centres unmarked) [Compound 1-285] | 4 (90%-99% herbicidal effect, phytotoxicity) | 5 (100% herbicidal effect, phytotoxicity) | 4 (90%-99% herbicidal effect, phytotoxicity) | 4 (90%-99% herbicidal effect, phytotoxicity) | 5 (100% herbicidal effect, phytotoxicity) |
| CCOC(=O)N(c1ccccc1CN1CCC(c2ccccc2C(F)(F)F)OC1=O)S(=O)(=O)C(F)(F)F (centres unmarked) [Compound 1-296] | 4 (90%-99% herbicidal effect, phytotoxicity) | 5 (100% herbicidal effect, phytotoxicity) | 4 (90%-99% herbicidal effect, phytotoxicity) | 4 (90%-99% herbicidal effect, phytotoxicity) | 5 (100% herbicidal effect, phytotoxicity) |
| CCC1(c2ccccc2)CCN(Cc2ccccc2NS(=O)(=O)C(F)(F)F)C(=O)O1 (centres unmarked) [Compound 1-316] | 4 (90%-99% herbicidal effect, phytotoxicity) | 5 (100% herbicidal effect, phytotoxicity) | 4 (90%-99% herbicidal effect, phytotoxicity) | 4 (90%-99% herbicidal effect, phytotoxicity) | 5 (100% herbicidal effect, phytotoxicity) |
| CCC1(c2ccccc2)CCN(Cc2ccccc2N(C(=O)OC)S(=O)(=O)C(F)(F)F)C(=O)O1 (centres unmarked) [Compound 1-317] | 4 (90%-99% herbicidal effect, phytotoxicity) | 5 (100% herbicidal effect, phytotoxicity) | 4 (90%-99% herbicidal effect, phytotoxicity) | 4 (90%-99% herbicidal effect, phytotoxicity) | 5 (100% herbicidal effect, phytotoxicity) |
| CCOC(=O)N(c1ccccc1CN1CCC(CC)(c2ccccc2)OC1=O)S(=O)(=O)C(F)(F)F (centres unmarked) [Compound 1-318] | 4 (90%-99% herbicidal effect, phytotoxicity) | 5 (100% herbicidal effect, phytotoxicity) | 4 (90%-99% herbicidal effect, phytotoxicity) | 4 (90%-99% herbicidal effect, phytotoxicity) | 5 (100% herbicidal effect, phytotoxicity) |
| CCC1(c2ccccc2)CCN(Cc2ccccc2N(C(=O)OCC(C)C)S(=O)(=O)C(F)(F)F)C(=O)O1 (centres unmarked) [Compound 1-321] | 4 (90%-99% herbicidal effect, phytotoxicity) | 5 (100% herbicidal effect, phytotoxicity) | 4 (90%-99% herbicidal effect, phytotoxicity) | 4 (90%-99% herbicidal effect, phytotoxicity) | 5 (100% herbicidal effect, phytotoxicity) |
| CC(C)(C)C1(C)CCN(Cc2ccccc2NS(=O)(=O)C(F)(F)F)C(=O)O1 (centres unmarked) [Compound 1-327] | 5 (100% herbicidal effect, phytotoxicity) | 5 (100% herbicidal effect, phytotoxicity) | 4 (90%-99% herbicidal effect, phytotoxicity) | 4 (90%-99% herbicidal effect, phytotoxicity) | 5 (100% herbicidal effect, phytotoxicity) |
| CCOC(=O)N(c1ccccc1CN1CCC(C)(C(C)(C)C)OC1=O)S(=O)(=O)C(F)(F)F (centres unmarked) [Compound 1-329] | 5 (100% herbicidal effect, phytotoxicity) | 5 (100% herbicidal effect, phytotoxicity) | 4 (90%-99% herbicidal effect, phytotoxicity) | 4 (90%-99% herbicidal effect, phytotoxicity) | 5 (100% herbicidal effect, phytotoxicity) |
| CC(C)COC(=O)N(c1ccccc1CN1CCC(C)(C(C)(C)C)OC1=O)S(=O)(=O)C(F)(F)F (centres unmarked) [Compound 1-332] | 5 (100% herbicidal effect, phytotoxicity) | 5 (100% herbicidal effect, phytotoxicity) | 4 (90%-99% herbicidal effect, phytotoxicity) | 4 (90%-99% herbicidal effect, phytotoxicity) | 5 (100% herbicidal effect, phytotoxicity) |
| COC(=O)N(c1ccccc1CN1CCC(C(F)(F)F)(C(F)(F)F)OC1=O)S(=O)(=O)C(F)(F)F [Compound 1-339] | 4 (90%-99% herbicidal effect, phytotoxicity) | 5 (100% herbicidal effect, phytotoxicity) | 4 (90%-99% herbicidal effect, phytotoxicity) | 4 (90%-99% herbicidal effect, phytotoxicity) | 5 (100% herbicidal effect, phytotoxicity) |
| CC(C)COC(=O)N(c1ccccc1CN1CCC(C(F)(F)F)(C(F)(F)F)OC1=O)S(=O)(=O)C(F)(F)F [Compound 1-343] | 5 (100% herbicidal effect, phytotoxicity) | 5 (100% herbicidal effect, phytotoxicity) | 4 (90%-99% herbicidal effect, phytotoxicity) | 4 (90%-99% herbicidal effect, phytotoxicity) | 5 (100% herbicidal effect, phytotoxicity) |
| COC(=O)N(c1ccccc1CN1CCC(c2c(C)cccc2C)OC1=O)S(=O)(=O)C(F)(F)F (centres unmarked) [Compound 1-361] | 5 (100% herbicidal effect, phytotoxicity) | 5 (100% herbicidal effect, phytotoxicity) | 4 (90%-99% herbicidal effect, phytotoxicity) | 4 (90%-99% herbicidal effect, phytotoxicity) | 5 (100% herbicidal effect, phytotoxicity) |
| CCOC(=O)N(c1ccccc1CN1CCC(c2c(C)cccc2C)OC1=O)S(=O)(=O)C(F)(F)F (centres unmarked) [Compound 1-362] | 4 (90%-99% herbicidal effect, phytotoxicity) | 5 (100% herbicidal effect, phytotoxicity) | 4 (90%-99% herbicidal effect, phytotoxicity) | 4 (90%-99% herbicidal effect, phytotoxicity) | 5 (100% herbicidal effect, phytotoxicity) |
| CC1(C2(C)CCN(Cc3ccccc3NS(=O)(=O)C(F)(F)F)C(=O)O2)CC1 (centres unmarked) [Compound 1-371] | 5 (100% herbicidal effect, phytotoxicity) | 5 (100% herbicidal effect, phytotoxicity) | 4 (90%-99% herbicidal effect, phytotoxicity) | 4 (90%-99% herbicidal effect, phytotoxicity) | 5 (100% herbicidal effect, phytotoxicity) |
| CCOC(=O)N(c1ccccc1CN1CCC(C)(C2(C)CC2)OC1=O)S(=O)(=O)C(F)(F)F (centres unmarked) [Compound 1-373] | 5 (100% herbicidal effect, phytotoxicity) | 5 (100% herbicidal effect, phytotoxicity) | 4 (90%-99% herbicidal effect, phytotoxicity) | 4 (90%-99% herbicidal effect, phytotoxicity) | 5 (100% herbicidal effect, phytotoxicity) |
| CC(C)COC(=O)N(c1ccccc1CN1CCC(C)(C2(C)CC2)OC1=O)S(=O)(=O)C(F)(F)F (centres unmarked) [Compound 1-376] | 5 (100% herbicidal effect, phytotoxicity) | 5 (100% herbicidal effect, phytotoxicity) | 4 (90%-99% herbicidal effect, phytotoxicity) | 4 (90%-99% herbicidal effect, phytotoxicity) | 5 (100% herbicidal effect, phytotoxicity) |
| CC1(C2CCC2)CCN(Cc2ccccc2NS(=O)(=O)C(F)(F)F)C(=O)O1 (centres unmarked) [Compound 1-382] | 5 (100% herbicidal effect, phytotoxicity) | 5 (100% herbicidal effect, phytotoxicity) | 4 (90%-99% herbicidal effect, phytotoxicity) | 4 (90%-99% herbicidal effect, phytotoxicity) | 5 (100% herbicidal effect, phytotoxicity) |
| CCOC(=O)N(c1ccccc1CN1CCC(C)(C2CCC2)OC1=O)S(=O)(=O)C(F)(F)F (centres unmarked) [Compound 1-384] | 5 (100% herbicidal effect, phytotoxicity) | 5 (100% herbicidal effect, phytotoxicity) | 4 (90%-99% herbicidal effect, phytotoxicity) | 4 (90%-99% herbicidal effect, phytotoxicity) | 5 (100% herbicidal effect, phytotoxicity) |
| CC(C)COC(=O)N(c1ccccc1CN1CCC(C)(C2CCC2)OC1=O)S(=O)(=O)C(F)(F)F (centres unmarked) [Compound 1-387] | 5 (100% herbicidal effect, phytotoxicity) | 5 (100% herbicidal effect, phytotoxicity) | 5 (100% herbicidal effect, phytotoxicity) | 5 (100% herbicidal effect, phytotoxicity) | 5 (100% herbicidal effect, phytotoxicity) |
